Test results reported in patent US20250129086A1, “COMPOUND FOR DEGRADING EGFR PROTEIN AND USE THEREOF” (TYK MEDICINES, INC., priority 2021, published 2025).

Experiments:
EGFR = molecular target: T1, EGFR (Homo sapiens, UniProt P00533, DEL746-750); assay: EGFR PROTAC In Cell Western assay in HCC827; type: cell-based; settings: HCC827, EGFR degradation, 16 hours of incubation
T1 construct: host or cells: HCC827
Description: Test Example 2 EGFR PROTAC in Cell Western Assay
HCC827 cell culture medium was purchased from Corning. Cell line HCC827 was purchased from BeNa Culture Collection; EGF Receptor (D38B1) XP Rabbit mAb antibody and β-Actin (8H10D10) Mouse mAb antibody were from CST. IRDye 800CW, IRDye 680RD, and Intercept blocking solution (PBS) were purchased from Licor. Triton-100 was purchased from sigma, and 96-well black cell culture imaging microtiter plates were purchased from Agilent.
1) HCC827 cells were cell counted and cells were inoculated into 96-well black cell culture imaging microtiter plates at a density of 40,000 cells per well, with 100 μl per well. The plate was incubated overnight in a CO2 incubator.
2) Day 1: A gradient dilution of the compound to be tested was added to the cells of the culture plate (with a starting concentration of […], 9 concentrations, a dilution ratio of 1:3, 2 duplicate wells), with a final concentration of DMSO being 0.5%, and a blank control of DMSO without compound. The plate was placed in the cell culture incubator for a final 16 hours of incubation.
3) The culture medium was removed from the 96 wells with a pipette and the residual medium was washed with […] of PBS per well on a shaker for 5 min. After the removal of PBS, cells were quickly fixed by adding 150 μl of fresh fixation buffer (3.7% paraformaldehyde) and incubated for 20 min at room temperature.
4) The fixation buffer was removed and […] of Triton elution buffer (0.3% Triton-100) was added to wash for four times on a shaker for 5 minutes each time.
5)[…] LI-COR Odyssey blocking solution was added and the cells were incubated for 1.5 hours at room temperature with slow shaking on a shaker.
6) To block the samples, a primary antibody against EGFR and Actin were prepared using Antibody Dilution Buffer at a ratio of 1:300. The blocking solution was poured out and the diluted primary antibody was added (at a total volume of 50 μl/per well). The cell plate was covered and incubated at 4° C. overnight.
7) The cell plate was washed four times with PBS+Triton X-100 for 5 minutes each time.
8) Fluorescently labeled secondary antibodies IRDye® 680RD and IRDye® 800CW were diluted with Antibody Dilution Buffer (with a ratio of 1:600, at a total volume of 50 μl/well) and then incubated for one hour at room temperature, protected from light.
9) The cell plate was washed four times with PBS+Triton X-100 for 5 minutes each time.
After pipetting the PBS thoroughly, the plate was inverted and imaged on a Burroughs imager. A multiple exposure program was selected, IRDye 680RD Blot was chosen for the first channel, and IRDye 800CW Blot was chosen for the second channel. […] The blank group was the DMSO group, EGFR/Actin was calculated as the EGFR value of the corresponding sample wells, and the degradation rate=100-100*EGFR signal/DMSO signal. The DC50 and Dmax of the degraded EGFR proteins were calculated by fitting curves using the Prism software, 3-parameter method.

[1] = tested on: HCC827 (exon 19 deletion mutation); assay: Cell antiproliferative assay (CTG, 72 h), HCC827; type: cell-based, human; settings: Homo sapiens, HCC827, 72 h
Procedure, shortened: (§1)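 Viability by CTG luminescence after 72 h compound exposure, normalised between blank medium and 0.1% DMSO controls, with IC50 from fitted curves. Dosing in triplicate, top 10,000 nM, 4-fold dilutions, applied about 24 h after plating 1500-2500 cells per well.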

[2] = tested on: H1975 (EGFR L858R/T790M double mutation); assay: Cell antiproliferative assay (CTG, 72 h), H1975; type: cell-based, human; settings: Homo sapiens, NCI-H1975, 72 h
Procedure, shortened: as §1

[3] = tested on: PC-9 (EGFR exon 19 deletion); assay: Cell antiproliferative assay (CTG, 72 h), PC-9; type: cell-based, human; settings: Homo sapiens, PC-9, 72 h
Procedure, shortened: as §1

T1 sequence (P00533 with tags, fused parts or gaps DEL746-750): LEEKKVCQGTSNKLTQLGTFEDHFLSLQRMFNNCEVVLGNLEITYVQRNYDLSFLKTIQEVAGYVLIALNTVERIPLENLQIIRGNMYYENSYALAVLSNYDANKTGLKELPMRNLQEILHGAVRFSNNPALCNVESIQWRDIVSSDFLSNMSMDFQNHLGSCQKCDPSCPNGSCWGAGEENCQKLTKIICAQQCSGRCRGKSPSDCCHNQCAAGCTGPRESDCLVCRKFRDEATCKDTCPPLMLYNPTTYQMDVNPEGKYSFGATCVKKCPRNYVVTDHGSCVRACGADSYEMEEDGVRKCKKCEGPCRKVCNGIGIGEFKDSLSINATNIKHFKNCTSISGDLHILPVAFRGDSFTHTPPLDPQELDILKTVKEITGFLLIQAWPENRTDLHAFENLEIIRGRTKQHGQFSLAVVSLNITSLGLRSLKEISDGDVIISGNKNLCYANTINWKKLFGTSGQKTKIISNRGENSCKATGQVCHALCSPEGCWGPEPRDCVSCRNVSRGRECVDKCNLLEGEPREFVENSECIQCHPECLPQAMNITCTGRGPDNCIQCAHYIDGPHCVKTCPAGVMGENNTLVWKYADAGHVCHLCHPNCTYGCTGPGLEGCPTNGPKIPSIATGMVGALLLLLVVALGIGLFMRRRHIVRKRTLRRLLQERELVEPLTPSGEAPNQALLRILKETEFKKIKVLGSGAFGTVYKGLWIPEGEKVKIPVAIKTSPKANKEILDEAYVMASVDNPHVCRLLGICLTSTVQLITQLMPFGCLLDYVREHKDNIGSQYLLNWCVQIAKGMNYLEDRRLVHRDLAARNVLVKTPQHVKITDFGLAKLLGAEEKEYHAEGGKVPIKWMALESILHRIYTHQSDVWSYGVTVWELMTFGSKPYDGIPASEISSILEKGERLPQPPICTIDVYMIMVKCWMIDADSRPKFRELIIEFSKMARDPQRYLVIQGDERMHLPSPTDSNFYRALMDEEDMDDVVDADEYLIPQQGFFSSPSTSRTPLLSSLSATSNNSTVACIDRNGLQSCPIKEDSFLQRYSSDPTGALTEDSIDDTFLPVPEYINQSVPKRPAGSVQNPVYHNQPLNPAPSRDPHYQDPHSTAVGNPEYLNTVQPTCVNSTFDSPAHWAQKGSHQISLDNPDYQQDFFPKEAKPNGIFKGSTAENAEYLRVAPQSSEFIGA

SMILES | Dmax (EGFR; HCC827, Table 4) | DC50 (EGFR; Table 4) | IC50 ([1]; Table 2, HCC827 cells) | IC50 ([1]; Table 3, HCC827 cells) | IC50 ([2]; Table 2, H1975 cells) | IC50 ([2]; Table 3, H1975 cells) | IC50 ([3]; Table 2, PC-9 cells) | IC50 ([3]; Table 3, PC-9 cells) | Dmax (EGFR; HCC827, Table 5) | DC50 (EGFR; Table 5)
O=C1CCC(Nc2ccc(C3CCN(CC(=O)N4CCN(c5ccc(-c6cc(F)c7c(c6)C(=O)N(C(C(=O)Nc6nccs6)c6ncn8c6CCC8)C7)cc5)CC4)CC3)cc2)C(=O)N1 (stereo not drawn) [Comparative Compound 1, reference compound] | < 50% | ≥ 1000 nM | ≥ 1000 nM | > 5000 nM | 100 to 1000 nM | 548 nM | ≥ 1000 nM | > 5000 nM |  | 
COc1cc(N2CCC(N3CCN(C(=O)C4CCN(CC5CCN(c6ccc7c(c6)C(=O)N(C6CCC(=O)NC6=O)C7=O)CC5)CC4)CC3)CC2)ccc1Nc1ncc(Cl)c(Nc2ccccc2P(C)(C)=O)n1 (stereo not drawn) [Comparative Compound 2, reference compound] | 50 to 70% | 10 to 100 nM | 100 to 1000 nM | 221 nM | 100 to 1000 nM | 186 nM | ≥ 1000 nM | 1940 nM | 64.7% | 22.3 nM
COc1cc(N2CCC(N3CCN(C(=O)CCCCN4CCN(c5ccc6c(c5)C(=O)N(C5CCC(=O)NC5=O)C6=O)CC4)CC3)CC2)ccc1Nc1ncc(Cl)c(Nc2ccccc2N(C)S(C)(=O)=O)n1 (stereo not drawn) [Comparative Compound 3, reference compound] | 50 to 70% | 10 to 100 nM | 10 to 100 nM | 72.5 nM | 100 to 1000 nM | 386 nM | 100 to 1000 nM | 682 nM | 56.4% | 15.2 nM
COc1cc(N2CCN(C(=O)CN3CCC(c4ccc(NC5CCC(=O)NC5=O)cc4)CC3)CC2)ccc1Nc1ncc(Cl)c(Nc2ccccc2C(C)=O)n1 (stereo not drawn) [Compound T-12] | 70 to 100% | 10 to 100 nM | 100 to 1000 nM | 110 nM | 10 to 100 nM | 34.3 nM | 100 to 1000 nM | 324 nM | 70.5% | 15.6 nM
COc1cc(N2CCN(C(=O)CN3CCC(c4ccc(NC5CCC(=O)NC5=O)cc4)CC3)CC2)ccc1Nc1ncc(Cl)c(Nc2ccccc2P(C)(C)=O)n1 (stereo not drawn) [Compound T-13] | 70 to 100% | ≤ 10 nM | 100 to 1000 nM |  | 10 to 100 nM |  | 100 to 1000 nM |  |  | 
COc1cc(N2CCN(C(=O)CN3CCC(c4ccc(NC5CCC(=O)NC5=O)cc4)CC3)CC2)ccc1Nc1ncc(C(F)(F)F)c(Nc2ccccc2C(C)=O)n1 (stereo not drawn) [Compound T-47] | 50 to 70% | 10 to 100 nM | 10 to 100 nM |  | 10 to 100 nM |  | 100 to 1000 nM |  |  | 
COc1cc(N2CCN(C(=O)CN3CCC(c4ccc(NC5CCC(=O)NC5=O)cc4)CC3)CC2)c(C)cc1Nc1ncc(Cl)c(Nc2ccccc2C(C)=O)n1 (stereo not drawn) [Compound T-57] | 50 to 70% | 10 to 100 nM | 100 to 1000 nM |  | 10 to 100 nM |  | 100 to 1000 nM |  |  | 
COc1cc(N2CCN(C(=O)CN3CCC(c4ccc(NC5CCC(=O)NC5=O)cc4)CC3)CC2C)ccc1Nc1ncc(Cl)c(Nc2ccccc2C(C)=O)n1 (stereo not drawn) [Compound T-60] | 50 to 70% | 10 to 100 nM | 100 to 1000 nM |  | 10 to 100 nM |  | 100 to 1000 nM |  |  | 
COc1cc(N2CCN(C(=O)CN3CCC(c4ccc(NC5CCC(=O)NC5=O)cc4)CC3)C(C)C2)ccc1Nc1ncc(Cl)c(Nc2ccccc2C(C)=O)n1 (stereo not drawn) [Compound T-63] | 50 to 70% | 100 to 1000 nM | 100 to 1000 nM |  | 10 to 100 nM |  | 100 to 1000 nM |  |  | 
COc1cc(N2CC3(CN(C(=O)CN4CCC(c5ccc(NC6CCC(=O)NC6=O)cc5)CC4)C3)C2)ccc1Nc1ncc(Cl)c(Nc2ccccc2C(C)=O)n1 (stereo not drawn) [Compound T-66] | < 50% | 10 to 100 nM | 100 to 1000 nM |  | 10 to 100 nM |  | ≥ 1000 nM |  |  | 
COc1cc(N2CCN(C(=O)CN3CCN(c4ccc(NC5CCC(=O)NC5=O)cc4)CC3)CC2)ccc1Nc1ncc(Br)c(Nc2ccccc2C(C)=O)n1 (stereo not drawn) [Compound T-84] | 70 to 100% | 10 to 100 nM | 100 to 1000 nM |  | 10 to 100 nM |  | 100 to 1000 nM |  |  | 
C=CC(=O)Nc1cc(Nc2ncc(Cl)c(Nc3ccccc3C(C)=O)n2)c(OC)cc1N1CCN(C(=O)CN2CCC(c3ccc(NC4CCC(=O)NC4=O)cc3)CC2)CC1 (stereo not drawn) [Compound T-91] | 50 to 70% | 10 to 100 nM | 10 to 100 nM |  | 10 to 100 nM |  | 100 to 1000 nM |  |  | 
COc1cc(N2CCN(C(=O)CN3CCN(c4ccc(NC5CCC(=O)NC5=O)nc4)CC3)CC2)ccc1Nc1ncc(Cl)c(Nc2ccccc2C(C)=O)n1 (stereo not drawn) [Compound T-101] | 50 to 70% | 10 to 100 nM | 100 to 1000 nM |  | 100 to 1000 nM |  | 100 to 1000 nM |  |  | 
COc1cc(N2CCC(N3CCN(C(=O)CN4CCC(c5ccc(NC6CCC(=O)NC6=O)cc5)CC4)CC3)CC2)ccc1Nc1ncc(Cl)c(Nc2ccccc2C(C)=O)n1 (stereo not drawn) [Compound T-121] | 50 to 70% | 100 to 1000 nM | 100 to 1000 nM |  | 100 to 1000 nM |  | ≥ 1000 nM |  |  | 
COc1cc(N2CC3CC(C2)N3C(=O)CN2CCC(c3ccc(NC4CCC(=O)NC4=O)cc3)CC2)ccc1Nc1ncc(Cl)c(Nc2ccccc2C(C)=O)n1 (stereo not drawn) [Compound T-125] | < 50% | 10 to 100 nM | 100 to 1000 nM |  | 100 to 1000 nM |  | ≥ 1000 nM |  |  | 
COc1cc(C(=O)N2CCC(c3ccc(NC4CCC(=O)NC4=O)cc3)CC2)ccc1Nc1ncc(Cl)c(Nc2ccccc2C(C)=O)n1 (stereo not drawn) [Compound T-130] | < 50% | 100 to 1000 nM |  |  |  |  |  |  |  | 
COc1cc(N2CCN(C(=O)CN3CCC(c4ccc(NC5CCC(=O)NC5=O)cc4)CC3)CC2)ccc1Nc1ncc(C(F)(F)F)c(Nc2ccc(F)cc2F)n1 (stereo not drawn) [Compound T-131] | < 50% | 10 to 100 nM |  |  |  |  |  |  |  | 
COc1cc(N2CCC(N(C)C(=O)CN3CCC(c4ccc(NC5CCC(=O)NC5=O)cc4)CC3)CC2)ccc1Nc1ncc(C(F)(F)F)c(Nc2ccccc2C(C)=O)n1 (stereo not drawn) [Compound T-163] | 50 to 70% | 100 to 1000 nM | 100 to 1000 nM |  | 10 to 100 nM |  | 100 to 1000 nM |  |  | 
COc1cc(N2CC(NC(=O)CN3CCC(c4ccc(NC5CCC(=O)NC5=O)cc4)CC3)C2)ccc1Nc1ncc(Cl)c(Nc2ccccc2C(C)=O)n1 (stereo not drawn) [Compound T-169] | < 50% | ≥ 1000 nM | 100 to 1000 nM |  | 100 to 1000 nM |  | 100 to 1000 nM |  |  | 
COc1cc(N2CC[C@H](N(C)C(=O)CN3CCC(c4ccc(NC5CCC(=O)NC5=O)cc4)CC3)C2)ccc1Nc1ncc(Cl)c(Nc2ccccc2C(C)=O)n1 (stereo partly drawn) [Compound T-172] | < 50% | 10 to 100 nM | 10 to 100 nM |  | 100 to 1000 nM |  | ≥ 1000 nM |  |  | 
COc1cc(N2CCN(CCN3CCC(c4ccc(NC5CCC(=O)NC5=O)cc4)CC3)CC2)ccc1Nc1ncc(Cl)c(Nc2ccccc2C(C)=O)n1 (stereo not drawn) [Compound T-182] | 50 to 70% | 10 to 100 nM | 100 to 1000 nM |  | 10 to 100 nM |  | 100 to 1000 nM |  |  | 
COc1cc(N2CCC(N(C)C(=O)C3CCN(CC4CCN(c5ccc6c(c5)C(=O)N(C5CCC(=O)NC5=O)C6=O)CC4)CC3)CC2)ccc1Nc1ncc(Cl)c(Nc2ccccc2C(C)=O)n1 (stereo not drawn) [Compound T-228] | < 50% | 100 to 1000 nM |  |  | 10 to 100 nM |  |  |  |  | 
